The structures appear in SMILES notation.

Series [1] in a line: In Vitro Microsome Stability Assay (monkey). The class given is in vitro ADME. The settings on record: monkey liver microsomes, 30 min w/ NADPH. The method in brief:
(§1)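 Test article, added from a 0.25 mM DMSO stock, was incubated with liver microsomes (20 mg/mL stock) in 0.1 M potassium phosphate at 37° C, with the reaction started by NADPH. Samples were quenched with acetonitrile containing internal standard at 0 and 30 min and analysed by LC-MS/MS. Values are % remaining at 30 min versus 0 min, using IS-normalised AUC ratios.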
For orientation: Liver microsomes are vesicles of endoplasmic reticulum, rich in cytochrome P450 enzymes.

Series [2] in a line: In Vitro Microsome Stability Assay (mouse). The class given is in vitro ADME. To be noted: mouse liver microsomes, 30 min w/ NADPH. Summed up:
as §1

For series [3], the system named is multiple myeloma cell line NCl-H929. Description: H929 Cell Viability Assay. The class given is cell-based, human. The settings on record: Homo sapiens, NCI-H929, 48 h, H929, Celltiter-Glo. The method in brief:
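Viability was determined by CellTiter-Glo luminescence after a 48 h, 37 °C exposure of NCI-H929 cells to serial compound dilutions in medium containing 10% FBS. Where stereochemistry is not shown, values refer to a mix of stereoisomers.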
In general terms: Cellular ATP, detected with luciferase, serves as a proxy for viable cell number.

A short description of series [4]: In Vitro Microsome Stability Assay (human). It counts as in vitro ADME. The settings on record: human liver microsomes, 30 min w/ NADPH. Summed up: as §1
The subject of series [5] is full length TNFα (amino acids 1-233) fused to Gaussia Luciferase. Description: Dox Induced TNFα-FL-Gluc Assay. The class given is cell-based. The settings on record: 24 hr, Dox inducible, 293FRT/TO cells; read-out: 24 hr Dox Inducible TNFaFLGluc 293FRT/TO: Mean IC50. Summed up: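 Compounds diluted in DMSO/medium with doxycycline were incubated at 37° C, 5% CO2 with 293 T-REx cells stably carrying a Tet-regulated TNFα(1-233)-Gaussia luciferase construct. Data for structures drawn without stereochemistry refer to stereoisomer mixtures.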

The test system of series [6] is full length IL-2 (amino acids 1-153) fused to Gaussia Luciferase. Description: Dox Induced IL2-FL-Gluc Assay. The class given is cell-based. To be noted: 24 hr, Dox inducible, 293FRT/TO cells; read-out: 24 hr Dox Inducible IL2FLGluc 293FRT/TO: Mean IC50. The method in brief: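 Compounds in DMSO/media with doxycycline were added to cells plated the previous day and incubated at 37° C, 5% CO2. Cells: stable Flp-In 293 T-REx line, Dox-regulated expression of IL-2 (aa 1-153) fused at its C-terminus to Gaussia luciferase.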

For series [7], the system named is multiple myeloma cell line U266B1. Description: U266 Cell Viability Assay. It counts as cell-based, human. To be noted: Homo sapiens, U-266; 48 hr, U266, Celltiter-Glo. The method in brief:
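Viability was measured by CellTiter-Glo luminescence after 48 h compound exposure at 37° C, 5% CO2. The cells were U266B1 multiple myeloma cells grown in RPMI 1640 plus 10% FBS. Where stereochemistry is not shown, values apply to the stereoisomer mixture.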

Series [8] is described as follows: In Vitro Microsome Stability Assay (rat). To be noted: rat liver microsomes, 30 min w/ NADPH. It counts as in vitro ADME. The method in brief: as §1
Series [9] relates to PD1 signal sequence plus 10 amino acids fused to Gaussia Luciferase (PD1-ss+10aa/Gaussia Luciferase). Description: Dox Induced PD1-ss-Gluc Assay. It counts as cell-based. To be noted: 24 hr, Dox inducible, 293FRT/TO cells; read-out: 24 hr Dox Inducible PD1ssGluc 293FRT/TO: Mean IC50. Summed up:
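Compound dilutions in DMSO/media containing doxycycline were applied to a stable, inducible 293 T-REx line carrying the luciferase fusion, then incubated at 37 °C, 5% CO2. Where stereochemistry is not drawn, values relate to isomer mixtures.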

For the molecule `Cc1cccc(C)c1N1CCN(S(=O)(=O)N2CCCN(CC3CCCCC3)CCCN(S(=O)(=O)c3ccc(N(C)C)cc3)C[C@H](C)C2)CC1` [A119, 4-{[(3S)-9-(cyclohexylmethyl)-5-{[4-(2,6-dimethylphenyl)piperazin-1-yl]sulfonyl}-3-methyl-1,5,9-triazacyclododecan-1-yl]sulfonyl}-N,N-dimethylaniline], in series [1], the “Liver Microsome Stability-% Left after 30 min w/ NADPH (%) Monkey” value (shortened to “Liver Microsome Stability-% Left … (%) Monkey”) is recorded as 53.9%. For the same molecule, the “Liver Microsome Stability-% Left after 30 min w/ NADPH (%) Mouse” value (“Liver Microsome Stability-% Left … (%) Mouse” for short) in series [2] worked out at 50.8%. For the same molecule, the EC50 (commonly the concentration needed to bring the measured effect to its halfway point) in series [3] is 7.68 µM; in series [7], above 25 µM. For the same molecule, the “Liver Microsome Stability-% Left after 30 min w/ NADPH (%) Human” value (shortened to “Liver Microsome Stability-% Left … (%) Human”) in series [4] turned out to be 71.7%. Also, the IC50 in series [5] was 1.08 µM; in series [6] it was 0.17 µM; in [9], 0.0523 µM. For the same molecule, in [8], the “Liver Microsome Stability-% Left after 30 min w/ NADPH (%) Rat” value (“Liver Microsome Stability-% Left … (%) Rat” below) is recorded as 66.1%.
As for `CC(C)CCN1CCCN(S(=O)(=O)c2ccc(N(C)C)cc2)C[C@H](C)CN(S(=O)(=O)N2CCc3cc(Cl)ccc3C2)CCC1` [A123, 4-{[(3S)-5-[(6-chloro-1,2,3,4-tetrahydroisoquinolin-2-yl)sulfonyl]-3-methyl-9-(3-methylbutyl)-1,5,9-triazacyclododecan-1-yl]sulfonyl}-N,N-dimethylaniline], the “Liver Microsome Stability-% Left … (%) Monkey” value in series [1] stood at 3.47%. For the same molecule, the “Liver Microsome Stability-% Left … (%) Mouse” value in series [2] is given as 6.13%. In addition, the EC50 in series [3] was 0.835 µM; in series [7], above 25 µM. Further, in series [4], the “Liver Microsome Stability-% Left … (%) Human” value is 5.02%. Also, the IC50 in series [5] is 0.425 µM; in series [6], 0.0459 µM; in series [9], 0.014 µM. Besides, the “Liver Microsome Stability-% Left … (%) Rat” value in [8] amounted to 7.41%.
On to `C[C@H]1CN(S(=O)(=O)c2ccc(N(C)C)cc2)CCCN(Cc2ncco2)CCCN(S(=O)(=O)N2CCc3cc(Cl)ccc3C2)C1` [A125, 4-{[(3S)-5-[(6-chloro-1,2,3,4-tetrahydroisoquinolin-2-yl)sulfonyl]-3-methyl-9-[(1,3-oxazol-2-yl)methyl]-1,5,9-triazacyclododecan-1-yl]sulfonyl}-N,N-dimethylaniline], for which the “Liver Microsome Stability-% Left … (%) Monkey” value in series [1] is on record as 8.67%. For the same molecule, the “Liver Microsome Stability-% Left … (%) Mouse” value in [2] was determined as 0.14%. For the same molecule, the EC50 in series [3] and in series [7] was above 25 µM in each case. In series [4], the “Liver Microsome Stability-% Left … (%) Human” value is on record as 0.2%. In addition, the IC50 came out at 11.5 µM in [5], 1.09 µM in series [6] and 0.829 µM in [9]. The “Liver Microsome Stability-% Left … (%) Rat” value in [8] came to 0.37%.
As for `Cc1ccc(CN2CCCN(S(=O)(=O)c3ccc(N(C)C)cc3)C[C@H](C)CN(S(=O)(=O)N3CCc4cc(Cl)ccc4C3)CCC2)cc1` [A131, 4-{[(3S)-5-[(6-chloro-1,2,3,4-tetrahydroisoquinolin-2-yl)sulfonyl]-3-methyl-9-[(4-methylphenyl)methyl]-1,5,9-triazacyclododecan-1-yl]sulfonyl}-N,N-dimethylaniline], the “Liver Microsome Stability-% Left … (%) Monkey” value in [1] came to 70.2%. Further, the “Liver Microsome Stability-% Left … (%) Mouse” value in [2] turned out to be 101%. Further, the values for the EC50 in series [3] and in series [7] were 4.74 µM and above 25 µM, respectively. Also, in series [4], the “Liver Microsome Stability-% Left … (%) Human” value is 84.5%. The results for the IC50 in series [5], in series [6] and in series [9] were 2.4 µM, 0.426 µM and 0.145 µM, respectively. In addition, the “Liver Microsome Stability-% Left … (%) Rat” value in series [8] was 73.9%.
`C[C@H]1CN(S(=O)(=O)c2ccc(N(C)C)cc2)CCCN(CCC2CCCCC2)CCCN(S(=O)(=O)N2CCc3cc(Cl)ccc3C2)C1` [A134, 4-{[(3S)-5-[(6-chloro-1,2,3,4-tetrahydroisoquinolin-2-yl)sulfonyl]-9-(2-cyclohexylethyl)-3-methyl-1,5,9-triazacyclododecan-1-yl]sulfonyl}-N,N-dimethylaniline]: the “Liver Microsome Stability-% Left … (%) Monkey” value in series [1] was 9.76%. In addition, the “Liver Microsome Stability-% Left … (%) Mouse” value in series [2] was determined as 27.9%. Further, the 50% effective concentration (EC50) was 0.541 µM in [3] and above 25 µM in series [7]. For the same molecule, the “Liver Microsome Stability-% Left … (%) Human” value in series [4] was determined as 31.9%. Moreover, the IC50 in [5] was determined as 0.309 µM; in [6] it was 0.0273 µM; in [9], 0.011 µM. Also, the “Liver Microsome Stability-% Left … (%) Rat” value in series [8] is recorded as 41.3%.
Take `C[C@H]1CN(S(=O)(=O)c2ccc(N(C)C)cc2)CCCN(CC2=CCCCC2)CCCN(S(=O)(=O)N2CCc3cc(Cl)ccc3C2)C1` [A135, 4-{[(3S)-5-[(6-chloro-1,2,3,4-tetrahydroisoquinolin-2-yl)sulfonyl]-9-[(cyclohex-1-en-1-yl)methyl]-3-methyl-1,5,9-triazacyclododecan-1-yl]sulfonyl}-N,N-dimethylaniline]: in series [1], the “Liver Microsome Stability-% Left … (%) Monkey” value came out at 39.2%. In addition, the “Liver Microsome Stability-% Left … (%) Mouse” value in [2] is 26.1%. In addition, the concentration for a half-maximal effect (EC50) is 1.24 µM in series [3] and above 25 µM in series [7]. In addition, the “Liver Microsome Stability-% Left … (%) Human” value in series [4] came out at 9.36%. Moreover, the IC50 was 0.625 µM in [5], 0.0486 µM in series [6] and 0.0216 µM in series [9]. Moreover, the “Liver Microsome Stability-% Left … (%) Rat” value in [8] was found to be 56.3%.
With `CCc1ccc2c(c1)CCN(S(=O)(=O)N1CCCN(CC3CCCCC3)CCCN(S(=O)(=O)c3ccc(N(C)C)cc3)C[C@H](C)C1)C2` [A136, 4-{[(3S)-9-(cyclohexylmethyl)-5-[(6-ethyl-1,2,3,4-tetrahydroisoquinolin-2-yl)sulfonyl]-3-methyl-1,5,9-triazacyclododecan-1-yl]sulfonyl}-N,N-dimethylaniline], in series [1], the “Liver Microsome Stability-% Left … (%) Monkey” value is listed as 23.2%. Moreover, the “Liver Microsome Stability-% Left … (%) Mouse” value in [2] is listed as 14.3%. The EC50 in series [3] is 1.73 µM; in [7], above 25 µM. Further, the “Liver Microsome Stability-% Left … (%) Human” value in [4] is reported as 65.3%. Further, the IC50 in series [5] was 0.544 µM; in [6], 0.101 µM; in series [9], 0.0265 µM. Further, the “Liver Microsome Stability-% Left … (%) Rat” value in [8] is 26.6%.
For `COc1cccc2c1CCN(S(=O)(=O)N1CCCN(CC3CCCCC3)CCCN(S(=O)(=O)c3ccc(N(C)C)cc3)C[C@H](C)C1)C2` [A138, 4-{[(3S)-9-(cyclohexylmethyl)-5-[(5-methoxy-1,2,3,4-tetrahydroisoquinolin-2-yl)sulfonyl]-3-methyl-1,5,9-triazacyclododecan-1-yl]sulfonyl}-N,N-dimethylaniline], the “Liver Microsome Stability-% Left … (%) Monkey” value in series [1] came to 12.5%. For the same molecule, in series [2], the “Liver Microsome Stability-% Left … (%) Mouse” value worked out at 13.2%. Also, the half-maximal effective concentration (EC50) in series [3] is 2.4 µM; in series [7], above 25 µM. In series [4], the “Liver Microsome Stability-% Left … (%) Human” value turned out to be 8.84%. The IC50 in [5] is 0.947 µM; in series [6], 0.156 µM; in series [9], 0.0739 µM. The “Liver Microsome Stability-% Left … (%) Rat” value in series [8] came to 17.1%.
`COCCN1CCCN(S(=O)(=O)c2ccc(N(C)C)cc2)C[C@H](C)CN(S(=O)(=O)N2CCc3cc(Cl)ccc3C2)CCC1` [A140, 4-{[(3S)-5-[(6-chloro-1,2,3,4-tetrahydroisoquinolin-2-yl)sulfonyl]-9-(2-methoxyethyl)-3-methyl-1,5,9-triazacyclododecan-1-yl]sulfonyl}-N,N-dimethylaniline]: in series [1], the “Liver Microsome Stability-% Left … (%) Monkey” value is recorded as 1.56%. The “Liver Microsome Stability-% Left … (%) Mouse” value in series [2] was 3.68%. In addition, the concentration giving a half-maximal response (EC50) in series [3] and in series [7] was above 25 µM throughout. Further, in series [4], the “Liver Microsome Stability-% Left … (%) Human” value worked out at 0.41%. Besides, the IC50 in series [5] was found to be 3.01 µM; in series [6], 0.808 µM; in series [9] it was 0.492 µM. Besides, the “Liver Microsome Stability-% Left … (%) Rat” value in series [8] came out at 0.56%.

Source of the values: patent publication US11578055B2, “Triazacyclododecansulfonamide (“TCD”)-based protein secretion inhibitors” (KEZAR LIFE SCIENCES, priority 2018, dated 2023).
